“And” between values parts separate entries of the source, which are not always exact repeats. Equal entries are not always repeated.
Tested on: LRF (luteinizing hormone releasing factor) induced luteinizing hormone (LH) release
Experiment: In vitro LRF antagonist test in rat anterior pituitary cell cultures
Format: cell-based
Details: for % LH Release Inhibition: test compound Molar Conc. 1 × 10^-6
From the text: Hexapeptides of this invention were screened for LRF antagonist activity in vitro using rat anterior pituitary cell cultures as described by Vale et. al. [Endocrinology, 91, 562 (1972)]. The inhibition of LRF (luteinizing hormone releasing factor) induced luteinizing hormone (LH) release into the culture medium is the endpoint in this in vitro bioassay.

[1] = test compound Molar Conc. 1 × 10^-6, LH released into culture medium

Substance | LH Value (LRF Control, Molar Conc. 2.5 × 10^-10) | LH Value (LRF Control, Molar Conc. 3.5 × 10^-10) | % LH Release Inhibition | LH Value [1]
LRF: luteinizing hormone releasing factor; stimulates secretion of luteinizing hormone from the anterior pituitary; used as stimulus control (QHWSYGLRPG; Gonadoliberin-1; UniProt P01148 24-33, looked up) [reference compound] | 38.98 ng/mL | 66.03 ng/mL and 35.60 ng/mL | – | –
N^α -Benzyloxycarbonyl-L-glutaminyl-L-tryptophyl-N^im -benzyl-L-histidyl-O-benzyl-L-tyrosyl-O-benzyl-L-seryl-D-alanine methyl ester | – | – | 86% | 13.53 ng/mL
N^α -t-Butoxycarbonyl-L-tryptophyl-N^im -benzyl-L-histidyl-O-benzyl-L-tyrosyl-O-benzyl-L-seryl-L-prolyl-D-alanine N-ethylamide | – | – | 100% | 5.57 ng/mL
N^α -t-Butoxycarbonyl-N^im -benzyl-L-histidyl-L-tryptophyl-N^im -benzyl-L-histidyl-O-benzyl-L-tyrosyl-O-benzyl-L-seryl-D-alanine N-ethylamide | – | – | 73% | 24.80 ng/mL

From US4085096A, “Hexapeptides and methods for their production” (Parke, Davis & Company, priority 1976, dated 1978)
